Paper PMC11613437, “Prioritization of Eleven-Nineteen-Leukemia Inhibitors as Orally Available Drug Candidates for Acute Myeloid Leukemia” (Journal of Medicinal Chemistry, 2024)
Read-outs that look alike come from different tables or passages of the source.

How the values were obtained:
[1] = test system: HOXA9, HOXA10, MEIS1, MYB and MYC; test: qRT-PCR of ENL target genes; assay type: cell-based; settings: MOLM-13 and MV4-11 cells, 72 h, concentrations as low as 1.0 μM
Method: Total RNA was extracted using the RNeasy plus kit (Qiagen, 74034) and reverse-transcribed using an iScript cDNA synthesis kit (Bio-Rad, 1708890). Quantitative real-time PCR (qRT-PCR) analyses were performed as described previously using PowerUp SYBR Green PCR Master Mix (Thermo Fisher, A25742) and the Bio-Rad CFX96 real-time PCR detection system. Gene expressions were calculated following normalization to β2-microglobulin (B2M) levels using the comparative Ct (cycle threshold) method. The primer pairs are as follows. HOXA9: forward 5′-GTATAG-[…]-3′, reverse 5′-[…]-3′. MEIS1: forward 5′-[…]-3′, reverse 5′ […]-AGCAAG-3′. MYB: forward 5′-[…]-3′, reverse 5′-[…]-3′, MYC: forward 5′-[…]-AGGT-3′, reverse 5′-TTT-[…]-3′. B2M: forward 5′-[…]-3′ reverse 5′-[…]-3′.

PK analysis in mice = assay type: in vivo; settings: plasma; for half-life at 24 h: read-out: t1/2 (h), PO (converted)
Method: Male CD-1 mice were used in the PK study. A compound was dissolved in a mixed solution containing 75% PEG300 and 25% D5W (5% dextrose in distilled water) or another solution containing 0.5% methyl cellulose and 0.5% Tween 80 in water at indicated dosage for i.v. and p.o. administrations, respectively. Three mice were used for each administration. Blood samples were taken from a vein at different time points up to 24 h after dosing, collected in tubes coated with an anticoagulant, and centrifuged at 1.5 × 10^4 g for 5 min to obtain plasma samples. Acetonitrile-containing internal standard (Labetalol, 100 ng/mL) was added to the plasma to precipitate proteins. The samples were subjected to vortex mixing for 10 min and then centrifugation at 4 °C for 15 min at 3220g. Then clear supernatants were analyzed by HPLC-MS/MS.

ENL YEATS = target: T1, ENL YEATS (Homo sapiens, UniProt Q03111); test: AlphaScreen assay with biotinylated ENL-S1 peptide; settings: inhibition of ENL YEATS binding to ENL-S1 peptide; mean ± SD, n = 3; read-out: Alpha IC50 (nM) for ENL YEATS
T1 construct: final concentrations of 100 nM His-ENL YEATS, 100 nM Biotin-ENL-S1
T1 sequence (Q03111 1-138 limits assumed): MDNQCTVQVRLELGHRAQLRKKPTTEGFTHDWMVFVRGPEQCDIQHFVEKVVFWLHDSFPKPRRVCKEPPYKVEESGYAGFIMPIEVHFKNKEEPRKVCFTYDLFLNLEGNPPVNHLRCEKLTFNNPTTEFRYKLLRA
Method: The AlphaScreen assay was carried out in 384-well plates. Manual assay setup was performed in a 40 μL reaction buffer (50 mM HEPES pH 7.4, 100 mM NaCl, 0.1% bovine serum albumin, and 0.05% CHAPS) with final concentrations of 100 nM His-ENL YEATS, 100 nM Biotin-ENL-S1, and 20 μg/mL of AlphaScreen donor and acceptor beads. The protein, peptide, and compounds were mixed and incubated for 1 h at room temperature and then incubated for 30 min in dark after adding the α beads. AlphaScreen-signals were detected by a multimode microplate reader (BioTeK Synergy Neo2) equipped with an Alpha-laser (PerkinElmer).

[2] = Cell toxicity assay (CCK-8), MV4-11; assay type: cell-based; settings: human, MV4-11 cells, 8 day treatment, n = 3; read-out: CC50 MV4-11 (Cellular IC50, 8-days incubation)
Method: (§1) Approximately 1 × 10^4 JURKAT, MOLM-13, MV4-11 and HEK293T cells in RPMI 1640 (no phenol red) (100 μL) were added to a 96-well plate and treated with DMSO or a compound at indicated concentrations for 72 h or 8 days. Cell viability was measured using the CCK-8 kit (Abcam, ab228554) according to the manufacturer’s instructions.

[3] = In vitro metabolic stability assay in HLM; assay type: in vitro ADME, human; settings: for CLint scaled at 1 h: read-out: Liver Microsome CLint, pred
Method: At 0, 5, 15, 30, 45, and 60 min, 200 μL acetonitrile (with the internal standard diclofenac as 10 μg/mL) was added to terminate the reaction, the remaining compound was analyzed by HPLC-MS/MS.

MV4-11 cells = test: Anti-proliferation assay, MV4-11; assay type: cell-based; settings: Homo sapiens, MV4-11, 336 h, approximately 2 weeks, read-out: inhibition of MV4-11 cell proliferation
Method: Cell proliferation assays were carried out in a 96-well tissue culture plate at 2 × 10^4 cells/well for all cell lines except in 200 μL with a compound added as 1:1000 dilution of DMSO stocks in triplicate. Culture density was determined every 3–4 days using the countess automated cell counter, after which 2 × 10^4 live cells were reseeded in fresh media and compound. The cumulative cell count was achieved by back calculation.

MOLM-13-Luc cells = test: Antitumor analysis in MOLM-13-Luc xenografted NSG mice; assay type: in vivo
Description: (§2) Animal studies were approved by the Texas A&M’s Institutional Animal Care and Use Committees. The 5 week-old female NSG mice (NOD.Cg-PrkdcscidIl2rgtm1Wjl/SzJ, Jackson Laboratory #005557) were ordered and kept under pathogen-free conditions for 1 week with free access to food and water after arrival for acclimation. Tumor models in these mice were then built by engrafting 1 × 10^6 MOLM-13-Luc cells (BPS Bioscience, 78372) through tail vein injection. Tumors were allowed to grow for 6 days, and then applied for treatment by oral gavage daily (day 0 was the beginning of treatment). Dosage of 200 or 400 mg/kg (vehicle of 5% DMSO, 45% PEG400, 2.5% Tween 80, and 47.5% water) was applied. Tumor growth was evaluated by bioluminescent imaging (BLI) using an IVIS In Vivo Imaging System by intraperitoneal injection of 150 mg/kg D-Luciferin potassium salt (MedChemExpress, HY-12591B). Their body weights were recorded every 2–3 days. Surviving mice were counted every day and the mortality was calculated. No animal was excluded from any of the analyses. The investigators were not blinded to allocation during experiments and outcome assessment.

[4] = Body weight of xenografted NSG mice under treatment; assay type: in vivo
Description: as §2

MOLM-13 cells = test: Cell toxicity assay (CCK-8), MOLM-13; assay type: cell-based
Method: as §1

[5] = mouse, male CD-1 mice, PO 20 mg/kg, read-out: AUC0–inf, oral
[6] = mouse, male CD-1 mice, PO 20 mg/kg
[7] = human, human liver microsomes, pH 7.4, HLM 0.5 mg/mL, NADPH 1 mM, mean ± SD, n = 3
[8] = human, human liver microsomes, pH 7.4, HLM 0.5 mg/mL, NADPH 1 mM, mean ± SD, n = 3, read-out: Liver Microsome t1/2

Question: With `CC(C)[C@H]1CCN1Cc1cc2cnc(NC(=O)c3ccc4nncn4c3)cc2[nH]1` [SR-C-107 (R), (R)-N-(2-((2-Isopropylazetidin-1-yl)methyl)-1H-pyrrolo[3,2-c]pyridin-6-yl)-[1,2,4]triazolo[4,3-a]pyridine-6-carboxamide] as the compound, how does the “expression of ENL target genes” value [1] read?
Answer: effectively suppress the expression of these genes

Question: What about the Cmax (PK analysis in mice; male, CD-1, mouse, mice, PO 20 mg/kg, corresponds to 285 ng/mL, read-out: oral Cmax expressed as effective concentration) of the same compound?
Answer: 750 nM

Question: What about the AUC(0-inf) (PK analysis in mice; [5]) of the same compound?
Answer: 808 ng·h/mL

Question: And the Cmax (PK analysis in mice; mouse, male CD-1 mice, PO 20 mg/kg, read-out: Cmax, oral)?
Answer: 285 ng/mL

Question: What about the half-life at 24 h (PK analysis in mice; [6]) of the same compound?
Answer: 1.41 h

Question: And the IC50 (ENL YEATS)?
Answer: 40 nM

Question: What about the IC50 at 8 days [2] of the same compound?
Answer: 0.81 ± 0.15 µM

Question: What about the “Liver Microsome t1/2” value ([3]; HLM 0.5 mg/mL, NADPH 1 mM, mean ± SD, n = 3) of the same compound?
Answer: 418.30 ± 39.58 min

Question: What about the CLint scaled at 1 h [3, 7] of the same compound?
Answer: 4.18 mL/min/kg

Question: And the half-life [3, 8]?
Answer: 418 min

Question: What about the inhibition at 1 µM (MV4-11 cells) of the same compound?
Answer: ~70%

Question: What about the “tumor growth inhibition (TGI)” value (MOLM-13-Luc cells; 200 mg/kg PO QD, after 8 days of treatment) of the same compound?
Answer: 49.5%

Question: And the “tumor growth inhibition (TGI)” value (MOLM-13-Luc cells; 200 mg/kg PO QD, day 12)?
Answer: 45%

Question: And the median survival time (MOLM-13-Luc cells; 200 mg/kg PO QD, vehicle 10)?
Answer: 15 days post-treatment

Question: What about the “tolerability / body weight loss” value ([4]; 200 mg/kg PO QD) of the same compound?
Answer: no significant body weight loss observed

Question: With `CC(C)C1CCN1Cc1ccc(CNC(=O)c2ccc3nncn3c2)cc1` (centres unmarked) [inhibitor 13] as the compound, how does the IC50 (MOLM-13 cells; 8 day treatment, n = 3, read-out: CC50 MOLM-13 (Cellular IC50, 8-days incubation)) read?
Answer: 6.01 ± 0.83 µM

Question: And the CC50 (MOLM-13 cells; Homo sapiens, MOLM-13, 72 h treatment (superscript a))?
Answer: 8.2 µM

Question: What about the “expression of ENL target genes” value [1] of the same compound?
Answer: effectively suppress the expression of these genes

Question: What about the half-life (PK analysis in mice; mouse, male CD-1 mice, IV 20 mg/kg, read-out: t1/2, IV (converted)) of the same compound?
Answer: 63 ± 1.8 min

Question: And the Cmax at 24 h (PK analysis in mice; [6])?
Answer: 2080 ng/mL

Question: And the AUC(0-inf) at 24 h (PK analysis in mice; [5])?
Answer: 5140 ng·h/mL

Question: And the half-life at 24 h (PK analysis in mice; [6])?
Answer: 0.84 h

Question: And the IC50 (ENL YEATS)?
Answer: 1260 ± 128 nM

Question: What about the IC50 at 8 days [2] of the same compound?
Answer: 6.72 µM

Question: What about the CLint scaled at 1 h [3, 7] of the same compound?
Answer: 4.09 mL/min/kg

Question: And the half-life at 1 h [3, 8]?
Answer: 427 ± 39.8 min

Question: What about the “parent compound remaining after 60 min incubation in HLM” value ([3]; in the presence of NADPH, 60 min) of the same compound?
Answer: over 90%

Question: What about the inhibition at 1 µM (MV4-11 cells) of the same compound?
Answer: 41%

Question: What about the inhibition at 10 µM (MV4-11 cells; 10 μM) of the same compound?
Answer: 75%

Question: What about the tumor reduction (MOLM-13-Luc cells; 200 mg/kg PO QD) of the same compound?
Answer: no noticeable tumor reduction

Question: What about the “increase in median survival” value (MOLM-13-Luc cells; 400 mg/kg PO QD vs control) of the same compound?
Answer: 33.3%

Question: What about the “tumor growth inhibition (TGI)” value (MOLM-13-Luc cells; 400 mg/kg PO QD, after 13 days of treatment, vs control) of the same compound?
Answer: ~45%

Question: And the median survival (MOLM-13-Luc cells; 400 mg/kg PO QD, control 15)?
Answer: 20 post-treatment days

Question: And the “tolerability / body weight loss” value ([4]; 200 mg/kg PO QD)?
Answer: no significant body weight loss observed

Question: What about the “tolerability / body weight loss” value ([4]; 400 mg/kg PO QD) of the same compound?
Answer: without significant body weight loss until day 15
